Source: ChEMBL document CHEMBL1201862, “PubChem BioAssay data set” (2004)
Where “and” joins values, the source holds several entries; their conditions need not be identical. Identical values can stand only once. Values belong to the compound of their own block, whether it stands above or below them. Calls of active or inactive are those of the source.

Assays:
CAAX prenyl protease 2 [1] = target: T1, CAAX prenyl protease 2 (Saccharomyces cerevisiae S288c, UniProt Q03530); experiment: yeast Rce1 CaaX protease inhibitors, dose response, biochemical, plate reader, dry powder retest (AID 588851)
T1 sequence (Q03530 whole entry): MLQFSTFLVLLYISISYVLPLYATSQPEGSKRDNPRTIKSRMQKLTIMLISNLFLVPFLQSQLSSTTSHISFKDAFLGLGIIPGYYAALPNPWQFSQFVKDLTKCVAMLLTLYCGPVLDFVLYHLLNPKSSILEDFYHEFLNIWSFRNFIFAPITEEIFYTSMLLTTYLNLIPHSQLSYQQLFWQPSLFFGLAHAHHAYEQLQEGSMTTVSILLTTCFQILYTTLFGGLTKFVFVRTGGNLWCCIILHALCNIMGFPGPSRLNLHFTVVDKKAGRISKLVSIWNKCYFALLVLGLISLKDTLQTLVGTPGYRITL

CAAX prenyl protease 2 [2] = target: T1, CAAX prenyl protease 2; format: biochemical
[3] = ADAM10 inhibitors, peptide cleavage, dose response, biochemical, QFRET (AID 743254);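 also: ADAM10 enzyme with the DM2 quenched FRET peptide as substrate; EDANS fluorescence gain as the protease cuts the substrate; inhibitor potency against ADAM10 proteolytic activity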
[4] = target: Disintegrin and metalloproteinase domain-containing protein 17 (Homo sapiens, UniProt P78536); experiment: ADAM17 protease inhibitors, dose response, counter-screen for ADAM10 exosite inhibitor project, biochemical, quenched FRET substrate (AID 743253)
Disintegrin and metalloproteinase domain-containing protein 17, sequence (P78536 whole entry, the tested form may be a part): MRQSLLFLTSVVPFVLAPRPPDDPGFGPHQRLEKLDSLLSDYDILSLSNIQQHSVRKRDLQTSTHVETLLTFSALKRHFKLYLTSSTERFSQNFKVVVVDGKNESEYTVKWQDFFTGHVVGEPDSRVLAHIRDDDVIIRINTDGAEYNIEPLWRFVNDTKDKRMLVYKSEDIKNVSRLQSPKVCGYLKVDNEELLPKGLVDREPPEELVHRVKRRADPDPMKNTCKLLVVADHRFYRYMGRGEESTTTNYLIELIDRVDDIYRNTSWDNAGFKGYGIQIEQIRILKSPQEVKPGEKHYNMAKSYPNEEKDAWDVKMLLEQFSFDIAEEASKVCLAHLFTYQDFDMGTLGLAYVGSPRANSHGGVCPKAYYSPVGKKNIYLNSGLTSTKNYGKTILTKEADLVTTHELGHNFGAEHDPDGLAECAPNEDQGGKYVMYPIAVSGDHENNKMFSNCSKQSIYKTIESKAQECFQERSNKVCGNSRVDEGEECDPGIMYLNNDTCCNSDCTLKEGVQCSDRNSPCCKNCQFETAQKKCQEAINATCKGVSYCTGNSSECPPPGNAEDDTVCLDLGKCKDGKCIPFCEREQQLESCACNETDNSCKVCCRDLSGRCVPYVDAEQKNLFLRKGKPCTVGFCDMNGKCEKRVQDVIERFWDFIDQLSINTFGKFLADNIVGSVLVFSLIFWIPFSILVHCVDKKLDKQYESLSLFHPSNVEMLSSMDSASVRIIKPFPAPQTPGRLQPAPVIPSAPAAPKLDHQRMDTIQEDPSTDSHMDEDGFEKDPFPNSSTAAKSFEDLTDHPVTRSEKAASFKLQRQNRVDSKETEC

INS1 [5] = experiment: protection of INS-1E cells from cytokine death, dose response, ATP luminescence, dry powder (AID 488844); format: functional, cell-based; settings: Rattus norvegicus
[6] = inhibitors of cytokine-induced nitrite release, dose response, cell-based, Griess absorbance, INS-1E, dry powder, set 3 (AID 488870); format: functional; settings: Rattus norvegicus
INS1 [7] = experiment: inhibitors of cytokine-induced nitrite release, dose response, cell-based, Griess absorbance, INS-1E, dry powder, set 2 (AID 488868); format: functional; settings: Rattus norvegicus
INS1 [8] = experiment: caspase-3/7 inhibition in cytokine-treated INS-1E, dose response, beta-cell apoptosis inhibitor project, cell-based, caspase luminescence, dry powder (AID 488848); format: functional; settings: Rattus norvegicus
INS1 [9] = experiment: inhibitors of cytokine-induced nitrite release, dose response, cell-based, Griess absorbance, INS-1E, dry powder (AID 488866); format: functional; settings: Rattus norvegicus
INS1 [10] = experiment: protection from cytokine-induced mitochondrial depolarization, dose response, cell-based, INS-1E, JC-1 fluorescence ratio, dry powder (AID 488931); format: functional; settings: Rattus norvegicus
[11] = cytotoxicity toward HT-29 cells – cell-based, CellTiter-Glo luminescence, IC50, dose response (AID 1117330); format: functional
[12] = Concentration-dependent survival of SW480 colon cancer line, luminescence detection with CellTiter-Glo, half-maximal inhibitory concentration (AID 1117338); format: functional
[13] = target: Latent membrane protein 1 (Human herpesvirus 4 (strain B95-8), UniProt P03230); experiment: TES1-eGFP NF-kB reporter inhibition versus Tet-On dsRED, dose response, selectivity assay for LMP1 NF-kB inhibitor project, imaging, HEK293T, dual-color eGFP/dsRED, cherry-picks (AID 588398); format: functional, cell-based
Latent membrane protein 1, sequence (P03230 whole entry): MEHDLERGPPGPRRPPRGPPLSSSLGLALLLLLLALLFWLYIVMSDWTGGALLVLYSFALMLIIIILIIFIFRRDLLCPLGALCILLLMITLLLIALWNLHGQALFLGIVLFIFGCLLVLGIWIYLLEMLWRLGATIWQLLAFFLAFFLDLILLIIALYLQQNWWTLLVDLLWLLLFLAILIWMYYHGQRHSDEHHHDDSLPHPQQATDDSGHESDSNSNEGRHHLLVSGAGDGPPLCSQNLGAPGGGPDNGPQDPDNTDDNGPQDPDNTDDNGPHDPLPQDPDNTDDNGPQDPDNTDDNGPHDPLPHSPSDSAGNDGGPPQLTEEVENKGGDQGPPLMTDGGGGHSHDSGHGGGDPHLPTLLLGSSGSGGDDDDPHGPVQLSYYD

[14] = SNU-C1 cell viability reduction, dose response, CellTiter-Glo luminescence (AID 1117323); format: functional, cell-based
[15] = Luminescence-based dose response cell-based high throughput screening assay for cytotoxic compounds using the IEC-6 intestinal epithelial cell line. [Related pubchem assays: 1858 (Summary AID.), 1825 (Counterscreen.), 1907 (Confirmation screen.)]; format: functional
Exodeoxyribonuclease V = target: T2, Exodeoxyribonuclease V (Escherichia coli (strain K12), UniProt P04993+P07648+P08394); experiment: E. coli RecBCD inhibitors, dose response, counter-screen for AddAB inhibitor project, absorbance, V66 E. coli, mutant T4 phage (AID 492957); format: functional, cell-based, Escherichia coli str. K-12 substr. MG1655
T2 sequence (P04993 whole entry): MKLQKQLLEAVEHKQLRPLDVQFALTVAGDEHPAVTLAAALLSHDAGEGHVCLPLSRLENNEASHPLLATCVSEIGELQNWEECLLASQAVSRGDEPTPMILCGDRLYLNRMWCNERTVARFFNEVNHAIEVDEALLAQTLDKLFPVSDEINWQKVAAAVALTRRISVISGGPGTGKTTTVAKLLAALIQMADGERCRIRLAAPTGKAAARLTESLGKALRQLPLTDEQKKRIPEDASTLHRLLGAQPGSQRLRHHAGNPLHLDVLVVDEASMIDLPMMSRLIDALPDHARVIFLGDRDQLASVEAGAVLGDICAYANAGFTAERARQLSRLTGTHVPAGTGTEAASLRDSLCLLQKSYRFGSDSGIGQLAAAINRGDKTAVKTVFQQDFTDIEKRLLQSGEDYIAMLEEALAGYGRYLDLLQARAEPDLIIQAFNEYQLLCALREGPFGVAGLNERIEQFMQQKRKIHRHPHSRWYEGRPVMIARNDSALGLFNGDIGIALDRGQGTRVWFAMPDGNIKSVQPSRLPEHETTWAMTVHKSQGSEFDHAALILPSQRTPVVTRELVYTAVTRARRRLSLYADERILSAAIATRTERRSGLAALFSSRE
T2 sequence (P07648 whole entry): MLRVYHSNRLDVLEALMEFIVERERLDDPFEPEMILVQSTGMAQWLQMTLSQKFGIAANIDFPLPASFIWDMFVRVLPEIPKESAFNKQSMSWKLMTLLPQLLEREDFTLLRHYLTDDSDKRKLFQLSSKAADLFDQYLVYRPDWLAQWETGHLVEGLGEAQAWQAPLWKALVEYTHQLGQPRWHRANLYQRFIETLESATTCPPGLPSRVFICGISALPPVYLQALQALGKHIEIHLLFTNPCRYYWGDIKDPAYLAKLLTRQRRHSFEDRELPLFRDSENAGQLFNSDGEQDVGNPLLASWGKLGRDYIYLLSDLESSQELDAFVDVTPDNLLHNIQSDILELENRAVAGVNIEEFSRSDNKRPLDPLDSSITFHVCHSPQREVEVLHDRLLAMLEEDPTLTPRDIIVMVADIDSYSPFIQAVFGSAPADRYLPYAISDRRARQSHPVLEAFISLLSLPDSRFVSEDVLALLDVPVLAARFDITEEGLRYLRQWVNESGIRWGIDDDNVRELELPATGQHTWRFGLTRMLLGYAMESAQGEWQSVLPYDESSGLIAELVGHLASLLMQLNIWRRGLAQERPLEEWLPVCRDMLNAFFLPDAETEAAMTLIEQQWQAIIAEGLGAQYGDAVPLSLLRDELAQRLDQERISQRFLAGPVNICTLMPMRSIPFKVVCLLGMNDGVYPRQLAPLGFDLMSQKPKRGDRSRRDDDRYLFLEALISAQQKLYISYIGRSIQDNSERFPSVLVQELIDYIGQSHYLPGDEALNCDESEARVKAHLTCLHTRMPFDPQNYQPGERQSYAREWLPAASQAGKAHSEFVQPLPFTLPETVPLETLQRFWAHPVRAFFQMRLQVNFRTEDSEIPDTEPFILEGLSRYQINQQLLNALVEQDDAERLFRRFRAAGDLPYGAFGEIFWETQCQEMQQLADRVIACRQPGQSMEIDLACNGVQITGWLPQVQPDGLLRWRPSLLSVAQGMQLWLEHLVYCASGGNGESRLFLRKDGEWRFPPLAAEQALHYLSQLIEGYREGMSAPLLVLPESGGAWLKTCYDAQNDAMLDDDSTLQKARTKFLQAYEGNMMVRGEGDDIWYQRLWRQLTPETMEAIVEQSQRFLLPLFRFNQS
T2 sequence (P08394 whole entry): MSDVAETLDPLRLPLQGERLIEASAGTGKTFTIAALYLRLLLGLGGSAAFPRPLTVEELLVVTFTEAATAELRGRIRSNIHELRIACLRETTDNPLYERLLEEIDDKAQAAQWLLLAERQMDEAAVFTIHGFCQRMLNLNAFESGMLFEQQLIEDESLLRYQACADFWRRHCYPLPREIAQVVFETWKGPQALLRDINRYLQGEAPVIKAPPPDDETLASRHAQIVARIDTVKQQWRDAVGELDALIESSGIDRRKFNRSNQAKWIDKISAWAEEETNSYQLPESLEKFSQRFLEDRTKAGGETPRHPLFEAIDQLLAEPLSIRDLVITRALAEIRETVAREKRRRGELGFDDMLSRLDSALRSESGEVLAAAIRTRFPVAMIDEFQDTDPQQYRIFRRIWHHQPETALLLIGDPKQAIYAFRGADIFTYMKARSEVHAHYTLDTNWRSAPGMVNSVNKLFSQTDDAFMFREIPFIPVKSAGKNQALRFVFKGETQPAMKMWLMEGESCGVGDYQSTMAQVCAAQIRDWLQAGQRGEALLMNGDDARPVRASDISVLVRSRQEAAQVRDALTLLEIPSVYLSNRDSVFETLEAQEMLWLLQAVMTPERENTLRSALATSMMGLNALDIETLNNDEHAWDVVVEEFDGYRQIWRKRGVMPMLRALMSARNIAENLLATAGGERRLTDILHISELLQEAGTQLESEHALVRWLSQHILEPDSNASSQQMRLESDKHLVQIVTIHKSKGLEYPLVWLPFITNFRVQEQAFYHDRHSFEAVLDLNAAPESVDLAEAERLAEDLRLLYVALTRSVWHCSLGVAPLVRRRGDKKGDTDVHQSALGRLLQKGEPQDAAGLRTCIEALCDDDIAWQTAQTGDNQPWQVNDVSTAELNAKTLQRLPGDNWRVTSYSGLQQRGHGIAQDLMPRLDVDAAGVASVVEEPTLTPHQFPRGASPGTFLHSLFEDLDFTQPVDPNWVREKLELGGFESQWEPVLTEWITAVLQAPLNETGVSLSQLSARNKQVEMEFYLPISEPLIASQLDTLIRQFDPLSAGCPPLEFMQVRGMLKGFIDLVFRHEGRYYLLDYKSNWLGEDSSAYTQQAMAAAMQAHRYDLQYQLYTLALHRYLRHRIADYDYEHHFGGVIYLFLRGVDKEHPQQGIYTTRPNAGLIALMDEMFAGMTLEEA

[16] = cytotoxicity toward Colo320 cells – cell-based, CellTiter-Glo luminescence, IC50, dose response (AID 1117334); format: functional; settings: COLO 320
[17] = Luminescence Cell-Based Dose Retest to Confirm Inhibitors of Cancer Stem Cells. [Related pubchem assays (depositor defined):AID2717, AID2721]; format: functional; settings: Homo sapiens
[18] = CellTiter-Glo luminescent dose response of DLD-1 viability loss (AID 1117352); format: functional
HEK293 = experiment: inhibitors of LMP1-driven NF-kB reporter, dose response, cell-based, HEK293, luciferase, cherry-pick (AID 588343); format: functional; settings: Homo sapiens
[19] = cytotoxicity in HEK-293T cells, dose response, cytotoxicity control for BCR NF-kB inhibitor project, luminescence, B-cell screen hits (AID 489021); format: functional, cell-based;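 also: HEK-293T cells carrying an NF-kB luciferase reporter; cells exposed to compound for about 14 hours before viability readout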

AC50 (CAAX prenyl protease 2 [1]): 3.25 µM (active)
AC50 (CAAX prenyl protease 2 [2]): 0.117 µM (active)
IC50 [3]: > 69.5 µM (inactive)
IC50 [4]: > 69.5 µM (inactive)
Compound: CC(C)c1c(C(=O)N/N=C/c2cccc3ccccc23)nnn1-c1nonc1N

Compound: COc1ccc(S(=O)(=O)N(C)C[C@@H]2Oc3c(NC(=O)Nc4cccc5ccccc45)cccc3C(=O)N([C@@H](C)CO)C[C@H]2C)cc1C
AC50 (INS1 [5]): 0.436 µM (active)
AC50 [6]: 34.5 µM (active)
AC50 (INS1 [7]): 25.1 µM (active)
AC50 (INS1 [8]): 0.414 µM (active)
AC50 (INS1 [9]): 45.2 µM (active)
AC50 (INS1 [10]): 4.91 µM (active)

Compound: O=c1[nH]c(=O)n([C@H]2C[C@H](O)[C@@H](CO)O2)cc1C(F)(F)F [TRIFLURIDINE]
IC50 [11]: > 20 µM (inactive)
IC50 [12]: > 20 µM (inactive)
AC50 [13]: 1.13 µM (active)
IC50 [14]: > 20 µM (inactive)
IC50 [15]: 1.75 µM (active)
IC50 (Exodeoxyribonuclease V): > 118 µM (inactive) and > 119 µM (inactive)
IC50 [16]: > 20 µM (inactive)
AC50 [17]: 1.66 µM (active)
IC50 [18]: > 20 µM (inactive)
AC50 (HEK293): 3.28 µM (active)
IC50 [19]: > 80 µM (inactive)
